Test results: US20210353579A1, “HIGH PENETRATION COMPOSITIONS AND USES THEREOF” (Techfields Pharma Co., Ltd., priority 2006, published 2021)

Key:
human skin tissue = conditions: pH 7.4
sun damaged skin = assay: Treatment of sun damaged skin of subjects; format: in vivo; conditions: applied to sun damaged skin
Text: Diethylaminoethyl acetylsalicylate.AcOH is applied to subjects' the sun damaged skin. […] 92% of the subjects treated experienced improved elasticity and firmness, and 95% experienced overall improvement in texture and tone. The results shown that HPPs of aspirin and related compounds may be used to treat skin conditions.

[1] = pH 7
[2] = Plasma levels after transdermal administration to hairless mice; format: in vivo; conditions: mouse, in vivo
Method: Tested compounds (20% solution or suspension in 1 mL isopropanol) are administered transdermally to the skin of intact hairless mice. The plasma levels of the parent compounds are determined by HPLC.

rat = conditions: rats
Method: The acute toxicity of the prodrug compounds and parent compounds are measured by LD50 of rat.

rats [3] = assay: Antipyretic activity, E. coli suspension as pyrogen; format: in vivo; conditions: in °C (unit assumed)
Method: Rats are administered with sterilized E. coli suspension as a pyrogen. Each group of rats are administered with a prodrug compounds or parent compounds at a dosage specified below. The prodrug compounds are administered either orally or transdermally. The parent compounds are administered orally.

mice = assay: Analgesic activity, acetic acid writhing; format: in vivo; conditions: 30 min before acetic acid
Method: The prodrug compounds are administered either transdermally or orally. The parent compounds are administered orally. The number of writhing that occurred when mice are administered the acetic acid solution are counted, and the rate of inhibition based on the control group which was not pretreated with any test compounds is calculated. […] The A group is the control group.

rats [4] = assay: Spinal cord injury, recovery from paralysis; format: in vivo, rat; conditions: 5 mg in 0.2 ml water on the area of injury twice per day for 1 months
Method: A group of rat was anesthetized with chloral hydrate, the spinal cord of rats was hit to induce spinal cord injury. At the next day, 20 completely paralyzed rats were divided into 2 groups. […] In group B (n=10), 5 mg of diethylaminopropyl acetylsalicylate.HCl in 0.2 ml of pure water was applied to the area of injury (˜2×3 cm^2) twice per day for 1 months. After the treatment, all rats (10/10) in control group (group A) were still completely paralyzed. We were excited to see that all rats (10/10) in the diethylaminopropyl acetylsalicylate.HCl treated group (group B) could walk. 4 Rats of them were completely normal and other 6 rats walked more slowly and less confidently than their injury. This therapeutic approach can treat spinal cord injury in humans and animals.

β-amyloid (Aβ) = assay: Tg2576 mouse model of Alzheimer disease: Aβ and senile plaques; format: in vivo
Text: For many years, efforts have been focused on the development of inhibitors of β-amyloid (Aβ) formation and its related neurotoxic effects. To determine the effect of diethylaminopropyl acetylsalicylate. HCl on in vivo Aβ accumulation, we administered transdermally diethylaminopropyl acetylsalicylate. […] Three-month-old female transgenic mice overexpressing the human APP gene containing the Swedish mutation that causes familial AD (Tg2576 line) were used for testing the effects of diethylaminopropyl acetylsalicylate.HCl in vivo. 20 Tg2576 mice were divided into 2 groups. […] In group B (n=10), 50 mg/kg of diethylaminopropyl acetylsalicylate.HCl in 0.2 ml of pure water was applied to the back of mouse once per day for 2 months. Then the animals were killed and their brains were removed for analysis. For Aβ analysis, hemibrains were dounce homogenized in 70% formic acid at 150 mg tissue/ml formic acid solution. Homogenates were transferred to a chilled ultracentrifuge and were then spun at 100,000 g for 1 h at 4° C. Supernatants were collected and neutralized with formic acid neutralization buffer (1.0 M Tris base, 0.5 M NaH2PO4, and 0.05% NaN3; 1:20) for Aβ quantitation by ELISA. Aβ40 and Aβ42 were assayed by ELISA. Four individual experiments were performed. To compare across studies, the values for an individual study were normalized using the values obtained for the control animals included in each study. Values represent the mean±SE for the n number shown, after normalizing.

Tg2576 mouse = assay: Tg2576 mice: radial-arm water-maze test of working memory; format: in vivo; conditions: 50 mg/kg, 2 months
Method: To determine if the transdermal administration of diethylaminopropyl acetylsalicylate.HCl has beneficial functional consequences, we tested 2 months of diethylaminopropyl acetylsalicylate.HCl (50 mg/kg) in the transgenic model for Alzheimer's disease in which mice develop learning deficits as amyloid accumulates. […] In the diethylaminopropyl acetylsalicylate.HCl (50 mg/kg) treated group, all mice performed superbly on the radial-arm water-maze test of working memory and untreated transgenic mice show memory deficits. […] This therapeutic approach can thus prevent and treat Alzheimer's dementia.

[5] = 50 mg/kg transdermally, 2 months
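For LD50 of HPP in this document: acute toxicity in rats expressed as LD50, determined for both prodrugs and their parent compounds.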

SMILES: CCN(CC)CCOC(=O)c1ccccc1OC(C)=O [diethylaminoethyl acetylsalicylate.AcOH]
- In vitro penetration rate (apparent flux), prodrug compounds (human skin tissue): 1000 μg/cm^2/h
- reduction in roughness (sun damaged skin): 89%
- reduction in the appearance of fine lines and wrinkles (sun damaged skin): 85%
- reduction in the look of freckles, moles, dark spots, and other discolorations (sun damaged skin): 85%
- reduction of acne (sun damaged skin): 97%
- subjects that experienced overall improvement in texture and tone (sun damaged skin): 95%
- subjects treated that experienced improved elasticity and firmness (sun damaged skin): 92%
- Solubility of HPP [1]: >300 mg/mL
- Peak plasma concentration of parent compound after prodrug compound [2]: 30 mg/L
- t, time to peak plasma level of parent compound after prodrug compound [2]: 20 min
- LD50 of HPP (rat): 2300 mg/kg
- body temperature, t = 0 min (rats [3]; 100 mg/kg orally): 37.25 ± 0.09
- body temperature, t = 90 min (rats [3]; 100 mg/kg orally): 36.40 ± 0.15
- body temperature, t = 180 min (rats [3]; 100 mg/kg orally): 36.50 ± 0.09
- body temperature, t = 270 min (rats [3]; 100 mg/kg orally): 36.40 ± 0.15
- body temperature, t = 0 min (rats [3]; 100 mg/kg transdermally): 37.19 ± 0.07
- body temperature, t = 90 min (rats [3]; 100 mg/kg transdermally): 36.40 ± 0.05
- body temperature, t = 180 min (rats [3]; 100 mg/kg transdermally): 36.38 ± 0.05
- body temperature, t = 270 min (rats [3]; 100 mg/kg transdermally): 36.40 ± 0.15
- body temperature, t = 0 min (rats [3]; 150 mg/kg orally): 37.18 ± 0.07
- body temperature, t = 90 min (rats [3]; 150 mg/kg orally): 36.30 ± 0.15
- body temperature, t = 180 min (rats [3]; 150 mg/kg orally): 36.28 ± 0.07
- body temperature, t = 270 min (rats [3]; 150 mg/kg orally): 36.20 ± 0.09
- body temperature, t = 0 min (rats [3]; 150 mg/kg transdermally): 37.33 ± 0.05
- body temperature, t = 90 min (rats [3]; 150 mg/kg transdermally): 36.27 ± 0.15
- body temperature, t = 180 min (rats [3]; 150 mg/kg transdermally): 36.26 ± 0.07
- body temperature, t = 270 min (rats [3]; 150 mg/kg transdermally): 36.22 ± 0.08
- % (rate of writhing inhibition) (mice; 50 mg/kg orally): 54%
- No. of Writhing (mice; 50 mg/kg orally): 15.4
- % (rate of writhing inhibition) (mice; 50 mg/kg transdermally): 56%
- No. of Writhing (mice; 50 mg/kg transdermally): 14.5
- % (rate of writhing inhibition) (mice; 100 mg/kg orally): 67%
- No. of Writhing (mice; 100 mg/kg orally): 11.0
- % (rate of writhing inhibition) (mice; 100 mg/kg transdermally): 70%
- No. of Writhing (mice; 100 mg/kg transdermally): 10.1

SMILES: CCN(CC)CCCOC(=O)c1ccccc1OC(C)=O.Cl [diethylaminopropyl acetylsalicylate.HCl]
- rats completely normal after treatment (rats [4]): 4
- rats that could walk after treatment (rats [4]): 10/10
- reduction in the number of senile plaques (β-amyloid (Aβ); 50 mg/kg transdermally over 2 months): 70-80%
- reduction in Aβ42 concentration in the brain (β-amyloid (Aβ); [5]): 70%
- reduction of the amount of Aβ detected in the brains (β-amyloid (Aβ); [5]): 70%
- Aß42 concentration (β-amyloid (Aβ); Tg2576 mice, 50 mg/kg transdermally once per day for 2 months): 2.3 ± 0.3 pmol/g tissue
- cognitive performance, radial-arm water-maze test of working memory (Tg2576 mouse): performed as well as nontransgenic mice
